Results published in patent US8513232B2, “Substituted spirocyclic piperidine derivatives as histamine-3 (H3) receptor ligands” (Cephalon, Inc., priority 2008, dated 2013).
Structures can show the parent of a compound that is named as a salt. Where two headings read alike, the source gives them in different places.

What was measured:
[1] = target: T1, human H3 receptor (Homo sapiens, UniProt Q9Y5N1); test: Human H3 radioligand binding ([3H]-N-alpha-methylhistamine, SPA)
T1 construct: expressed in transfected cells
T1 sequence (Q9Y5N1 whole entry): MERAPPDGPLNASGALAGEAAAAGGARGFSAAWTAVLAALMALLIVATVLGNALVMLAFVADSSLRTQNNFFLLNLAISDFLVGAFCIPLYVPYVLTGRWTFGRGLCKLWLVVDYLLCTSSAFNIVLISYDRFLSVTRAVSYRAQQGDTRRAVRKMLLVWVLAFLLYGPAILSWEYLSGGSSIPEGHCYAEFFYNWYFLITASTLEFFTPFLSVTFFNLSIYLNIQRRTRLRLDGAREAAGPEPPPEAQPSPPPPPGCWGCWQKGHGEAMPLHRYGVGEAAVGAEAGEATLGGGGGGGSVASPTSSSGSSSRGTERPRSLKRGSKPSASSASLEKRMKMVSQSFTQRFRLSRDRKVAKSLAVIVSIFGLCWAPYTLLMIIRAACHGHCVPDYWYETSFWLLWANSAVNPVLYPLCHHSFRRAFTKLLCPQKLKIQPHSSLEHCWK
Experimental: (§1) Methods: CHO cells stably expressing the human H3 receptor (GenBank: NM_007232) were harvested and cell pellets were frozen (−80° C.). Cell pellets were resuspended in 5 mM Tris-HCl, pH 7.5 with […] and a cocktail of protease inhibitors (Complete Protease Inhibitior Tablets, Roche Diagnostics). Cells were disrupted using a polytron cell homogenizer and the suspension was centrifuged at 1000×g for 10 minutes at 4° C. The pellet was discarded and the supernatant centrifuged at 40,000×g for 30 min at 4° C. This membrane pellet was washed in membrane buffer containing 50 mM Tris-HCl, pH 7.5 with 0.6 mM EDTA, 5 mM MgCl2 and protease inhibitors, recentrifuged as above and the final pellet resuspended in membrane buffer plus 250 mM sucrose and frozen at −80° C.
(§2) Radioligand Binding. Membranes were resuspended in 50 mM Tris HCl (pH 7.4), 5 mM MgCl2, 0.1% BSA. The membrane suspensions (10 μg protein per well) were incubated in a 96 well microtiter plate with [^3H]-N-alpha-methylhistamine (approximately 1 nM final concentration), test compounds at various concentrations (0.01 nM-30 μM) and scintillation proximity beads (Perkin Elmer, FlashBlueGPCR Scintillating Beads) in a final volume of 80 μl for 4 hours at room temperature, protected from light. Non-specific binding was determined in the presence of 10 μM clobenpropit. Radioligand bound to receptor, and therefore in proximity to the scintillation beads, was measured using a MicroBeta scintillation counter.

[2] = target: T2, rat histamine H3 receptor (Rattus norvegicus, UniProt Q9QYN8); test: Rat H3 radioligand binding ([3H]-N-alpha-methylhistamine, SPA)
T2 construct: encoding the entire 445-amino-acid rat histamine H3 receptor; expressed in transfected cells; membrane preparation
T2 sequence (Q9QYN8 whole entry): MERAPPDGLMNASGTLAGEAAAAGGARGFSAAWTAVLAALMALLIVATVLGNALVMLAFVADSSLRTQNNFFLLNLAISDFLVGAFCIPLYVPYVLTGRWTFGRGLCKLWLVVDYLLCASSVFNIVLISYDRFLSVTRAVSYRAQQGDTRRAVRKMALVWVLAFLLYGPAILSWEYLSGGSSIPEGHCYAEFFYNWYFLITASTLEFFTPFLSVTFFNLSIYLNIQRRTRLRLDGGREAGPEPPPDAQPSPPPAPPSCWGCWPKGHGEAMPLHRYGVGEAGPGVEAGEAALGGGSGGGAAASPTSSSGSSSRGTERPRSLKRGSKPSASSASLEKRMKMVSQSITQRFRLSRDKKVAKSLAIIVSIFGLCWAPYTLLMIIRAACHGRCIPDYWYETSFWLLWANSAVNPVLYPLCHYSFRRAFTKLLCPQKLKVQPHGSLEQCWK
Source text: as §1, with “Cell line development and membrane preparation. The rat” for “Methods: CHO cells stably expressing the human”, “cDNA was PCR amplified from reverse-transcribed RNA pooled from rat thalamus, hypothalamus, striatum and prefrontal cortex with a sequence corresponding to by #338-1672 of Genbank file #NM_053506, encoding the entire 445-amino-acid rat histamine H3 receptor. This was engineered into the pIRES-neo3 mammalian expression vector, which was stably transfected into the CHO-A3 cell line (Euroscreen, Belgium), followed by clonal selection by limiting dilution. Cells” for “(GenBank: NM_007232)”
as §2

[3] = Table A, human H3 binding, read-out: Human Ki
[4] = Table A, rat H3 binding, read-out: Rat Ki
[5] = Human H3 binding, Table B, Examples 136-362, read-out: hum H3 binding Ki
[6] = Table C, human H3 binding, read-out: Human H3 Ki
[7] = Table C, rat H3 binding, read-out: Rat H3 Ki
[8] = human H3 binding, Table D, read-out: Human H3 Ki
[9] = rat H3 binding, Table D, read-out: Rat H3 Ki

Cc1nc(C)c(-c2ccc3c(c2)COC2(CCN(C4CCC4)CC2)O3)s1 (as salt: HCl) [Example 70]
melting point: 225 to 227 °C

c1ccc(Oc2ccc3c(c2)COC2(CCN(C4CCC4)CC2)O3)cc1 (as salt: HCl) [Example 131]
melting point: 240 to 245 °C

c1cc2c(cc1OC1CCNCC1)CCC1(CCN(C3CCC3)CC1)O2 (as salt: HCl) [Example 425]
melting point: > 320 °C

CC(C)Cn1cc(-c2ccc3c(c2)COC2(CCN(C4CCC4)CC2)O3)ccc1=O (as salt: HCl) [Example 562]
melting point: 182 to 190 °C

CC(C)CN1CC(c2ccc3c(c2)COC2(CCN(C4CCC4)CC2)O3)CCC1=O (centres unmarked) (as salt: HCl) [Example 564]
melting point: 98 to 103 °C

Fc1cncc(-c2ccc3c(c2)COC2(CCN(C4CCC4)CC2)O3)c1 [Example 4]
melting point: 140 to 145 °C
Ki [1, 3]: < 200 nM
Ki [2, 4]: < 200 nM

c1cc(-c2ccc3c(c2)COC2(CCN(C4CCC4)CC2)O3)co1 [Example 5]
melting point: 150 to 152 °C
Ki [1, 3]: < 200 nM
Ki [2, 4]: < 200 nM

c1cn2cc(-c3ccc4c(c3)COC3(CCN(C5CCC5)CC3)O4)ccc2n1 [Example 19]
melting point: 64.5 to 66 °C
Ki [1, 3]: < 200 nM
Ki [2, 4]: < 200 nM

COc1ccc(-c2ccc3c(c2)COC2(CCN(C4CCC4)CC2)O3)cn1 [Example 22]
melting point: 122 to 124 °C
Ki [1, 3]: < 200 nM
Ki [2, 4]: < 200 nM

COCCNC(=O)c1ccc(-c2ccc3c(c2)COC2(CCN(C4CCC4)CC2)O3)cc1 [Example 26]
melting point: 145 to 147 °C
Ki [1, 3]: < 200 nM
Ki [2, 4]: < 200 nM

O=C(c1ccc(-c2ccc3c(c2)COC2(CCN(C4CCC4)CC2)O3)cc1)N1CCCCC1 [Example 27]
melting point: 59 to 62 °C
Ki [1, 3]: < 200 nM
Ki [2, 4]: < 200 nM

O=C(O)c1c(F)cc(-c2ccc3c(c2)COC2(CCN(C4CCC4)CC2)O3)cc1F [Example 334]
Ki [1, 5]: 200 to 1000 nM
Ki ([2]; Rat H3 binding, Table B, given as numeric bound instead of class symbol, read-out: rat H3 binding Ki): > 300 nM

NC(=O)c1c(F)cc(-c2ccc3c(c2)CCC2(CCN(C4CCC4)CC2)O3)cc1F [Example 340]
Ki [1, 5]: < 200 nM
Ki ([2]; Rat H3 binding, Table B, Examples 136-362, read-out: rat H3 binding Ki): < 200 nM

NC(=O)c1ccc(N2CCN(c3ccc4c(c3)CCC3(CCN(C5CCC5)CC3)O4)CC2)nc1 [Example 379]
Ki [1, 6]: < 200 nM
Ki [2, 7]: < 200 nM

COC1CCN(c2ccc3c(c2)CCC2(CCN(C4CCC4)CC2)O3)CC1 [Example 380]
Ki [1, 6]: < 200 nM
Ki [2, 7]: < 200 nM

CS(=O)(=O)N1CCC(Oc2ccc3c(c2)CCC2(CCN(C4CCC4)CC2)O3)CC1 [Example 408]
Ki [1, 6]: < 200 nM
Ki [2, 7]: < 200 nM

CN(C)C(=O)c1ccc(N2CCN(c3ccc4c(c3)CCC3(CCN(C5CCC5)CC3)O4)CC2)nc1 [Example 410]
Ki [1, 6]: < 200 nM
Ki [2, 7]: < 200 nM

c1cc2c(cc1OC1CCNCC1)CCC1(CCN(C3CCC3)CC1)O2 [Example 425]
Ki [1, 6]: < 200 nM
Ki [2, 7]: < 200 nM

c1cn2c(n1)CN(c1ccc3c(c1)CCC1(CCN(C4CCC4)CC1)O3)CC2 [Example 428]
Ki [1, 6]: < 200 nM
Ki [2, 7]: < 200 nM

c1cc2c(cc1OCC1CCCO1)CCC1(CCN(C3CCC3)C1)O2 (centres unmarked) [Example 445]
Ki ([1]; read-out: Human H3 Ki): 200 to 1000 nM
Ki ([2]; read-out: Rat H3 kI): 200 to 1000 nM

c1cc2c(cc1OCC1CCCO1)CCC1(CCN(C3CCC3)CC1)O2 (centres unmarked) [Example 449]
Ki ([1]; read-out: Human H3 Ki): < 200 nM
Ki ([2]; read-out: Rat H3 kI): < 200 nM

c1cc2c(cc1OC1CCSCC1)CCC1(CCN(C3CCC3)CC1)O2 [Example 457]
Ki ([1]; read-out: Human H3 Ki): < 200 nM
Ki ([2]; read-out: Rat H3 kI): < 200 nM

c1cc2c(cc1OC[C@H]1CCCO1)CCC1(CCN(C3CCC3)CC1)O2 [Example 464]
Ki ([1]; read-out: Human H3 Ki): < 200 nM
Ki ([2]; read-out: Rat H3 kI): < 200 nM

c1cc2c(cc1OC1CCSC1)CCC1(CCN(C3CCC3)CC1)O2 (centres unmarked) [Example 484]
Ki ([1]; read-out: Human H3 Ki): < 200 nM
Ki ([2]; read-out: Rat H3 kI): < 200 nM

O=S1(=O)CCC(COc2ccc3c(c2)CCC2(CCN(C4CCC4)CC2)O3)CC1 [Example 500]
Ki ([1]; read-out: Human H3 Ki): < 200 nM
Ki ([2]; read-out: Rat H3 kI): < 200 nM

COc1ccc(CCc2ccc3c(c2)COC2(CCN(C4CCC4)CC2)O3)cn1 [Example 522]
Ki ([1]; read-out: Human H3 Ki): < 200 nM
Ki ([2]; read-out: Rat H3 kI): < 200 nM

CCNC(=O)C1CC=C(c2ccc3c(c2)COC2(CCN(C4CCC4)CC2)O3)CC1 (centres unmarked) [Example 523]
Ki ([1]; read-out: Human H3 Ki): < 200 nM
Ki ([2]; read-out: Rat H3 kI): < 200 nM

CCNC(=O)C1CCC(c2ccc3c(c2)COC2(CCN(C4CCC4)CC2)O3)CC1 (centres unmarked) [Example 524]
Ki ([1]; read-out: Human H3 Ki): < 200 nM
Ki ([2]; read-out: Rat H3 kI): < 200 nM

COC1(c2ccc3c(c2)COC2(CCN(C4CCC4)CC2)O3)CC(C(=O)N2CCCC2)C1 (centres unmarked) [Example 540]
Ki ([1]; read-out: Human H3 Ki): < 200 nM
Ki ([2]; read-out: Rat H3 kI): < 200 nM

Cc1cc(-c2ccc3c(c2)COC2(CCN(C4CCC4)CC2)O3)cnc1OCc1ccccc1 [Example 549]
Ki ([1]; read-out: Human H3 Ki): 200 to 1000 nM
Ki ([2]; read-out: Rat H3 kI): > 1000 nM

Cc1c(-c2ccc(=O)n(C)c2)ccc2c1COC1(CCN(C3CCC3)CC1)O2 [Example 557]
Ki ([1]; read-out: Human H3 Ki): < 200 nM
Ki ([2]; read-out: Rat H3 kI): < 200 nM

CC(C)Cn1cc(-c2ccc3c(c2)COC2(CCN(C4CCC4)CC2)O3)ccc1=O [Example 562]
Ki ([1]; read-out: Human H3 Ki): < 200 nM
Ki ([2]; read-out: Rat H3 kI): < 200 nM

CC(C)CN1CC(c2ccc3c(c2)COC2(CCN(C4CCC4)CC2)O3)CCC1=O (centres unmarked) [Example 564]
Ki ([1]; read-out: Human H3 Ki): < 200 nM
Ki ([2]; read-out: Rat H3 kI): < 200 nM

COC1(c2ccc3c(c2)COC2(CCN(C4CCC4)CC2)O3)CCC(C(F)(F)F)CC1 (centres unmarked) [Example 568]
Ki ([1]; read-out: Human H3 Ki): < 200 nM
Ki ([2]; read-out: Rat H3 kI): < 200 nM

O=C(O)CCc1ccc2c(c1)COC1(CCN(C3CCC3)CC1)O2 [Example 637]
melting point: 235 to 237 °C
Ki [1, 8]: 200 to 1000 nM

c1ncc(Cc2ccc3c(c2)COC2(CCN(C4CCC4)CC2)O3)s1 [Example 690]
Ki [1, 8]: < 200 nM
Ki [2, 9]: < 200 nM

c1csc(Cc2ccc3c(c2)COC2(CCN(C4CCC4)CC2)O3)n1 [Example 696]
Ki [1, 8]: < 200 nM
Ki [2, 9]: < 200 nM

c1nc(Cc2ccc3c(c2)COC2(CCN(C4CCC4)CC2)O3)cs1 [Example 701]
Ki [1, 8]: < 200 nM
Ki [2, 9]: < 200 nM

CC(C)(C)OC(=O)n1cccc1-c1ccc2c(c1)COC1(CCN(C3CCC3)CC1)O2 [Example 706]
Ki [1, 8]: < 200 nM
Ki [2, 9]: < 200 nM

O=c1ccc(-c2ccc3c(c2)COC2(CCN(C4CC(CO)C4)CC2)O3)c[nH]1 (centres unmarked) [Example 721]
melting point: 228 to 230 °C
Ki [1, 8]: > 1000 nM

COC(c1ccncc1)c1ccc2c(c1)COC1(CCN(C3CCC3)CC1)O2 (centres unmarked) [Example 724]
Ki [1, 8]: < 200 nM
Ki [2, 9]: < 200 nM

O=C(c1ccncc1)N1CCN(c2ccc3c(c2)COC2(CCN(C4CCC4)CC2)O3)C(=O)C1 [Example 741]
Ki [1, 8]: < 200 nM
Ki [2, 9]: < 200 nM

COCc1cc(=O)n(C)cc1-c1ccc2c(c1)COC1(CCN(C3CCC3)CC1)O2 [Example 790]
Ki [1, 8]: < 200 nM
Ki [2, 9]: < 200 nM

CCS(=O)(=O)c1cc(-c2ccc3c(c2)COC2(CCN(C4CCC4)CC2)O3)c[nH]c1=O [Example 807]
Ki [1, 8]: < 200 nM
Ki [2, 9]: < 200 nM
